Source: US9732079B2, “Yellow reduced pyrroloquinoline quinone crystal and method of producing the same, and food, pharmaceutical, gel, composition and method of producing composition” (Mitsubishi Gas Chemical Company, Inc., priority 2013, dated 2017)

Key:
Format in all cases: physicochemical
[1] = Test on stability of crystal (dispersed in water); conditions: 0.2 g mixed with water 1 mL, room temperature
Protocol: [Test on Stability of Crystal (Dispersed in Water)]
The crystal (0.2 g) obtained in Example 1 was mixed with water (1 mL).
The solid (0.2 g) obtained in Comparative Example 1 was mixed with water (1 mL).
The crystal (0.2 g) obtained in Comparative Example 2 was mixed with water (1 mL).

[2] = Test on solubility in water; conditions: 30 mg in water 1 mL, ultrasonically treated one minute, room temperature 30 minutes or more, absorbance at 310 nm
Protocol: [Test on Solubility in Water]
(§1) The crystal (30 mg) obtained in Example 1 was added to water (1 mL), and was ultrasonically treated for one minute. The solution was left at room temperature for 30 minutes or more, and thereafter the resulting precipitate was centrifuged and the resulting supernatant was diluted with water to analyze the concentration at an absorbance at 310 nm. The concentration was 0.13 mg/mL.
as §1, with “Example 2” for “Example 1”, “was 0.14” for “was 0.13”
as §1, with “The solid (30 mg)” for “The crystal (30 mg)”, “obtained in Comparative Example 1” for “obtained in Example 1”, “concentration was 0.019 mg/mL.” for “concentration was 0.13 mg/mL.”

[3] = Dispersibility in ethanol: gelation test; conditions: for Homogeneity of ethanol mixture (upper and lower portions) / Appearance of ethanol mixture after standing: 20 mg in ethanol 2 mL; for Homogeneity of ethanol mixture (upper and lower portions): left at 20° C. for two to three hours; for Appearance of ethanol mixture after standing: ultrasonically treated one minute, left at 20° C. for two hours; for Appearance after adding ethanol mixture to water: 20 μL of gelled product / ethanol mixture added to water 1 mL
Protocol: [Dispersibility in Ethanol: Gelation Test]
The crystal (20 mg) obtained in Example 1 was added to ethanol (2 mL), and was ultrasonically treated for one minute. […] The gelled product was generated through the following process: the reduced PQQ crystals according to the present invention turned into fibers, and alcohol was encapsulated between these fibers in the form of a net to generate a gel.
The solid (20 mg) obtained in Comparative Example 1 was added to ethanol (2 mL), and was ultrasonically treated for one minute.

[4] = Test on solubility in ethanol; conditions: 40 mg in ethanol 2 mL, ultrasonically treated one minute, room temperature 30 minutes or more, absorbance at 330 nm
Protocol: [Test on Solubility in Ethanol]
as §1, with “(40” for “(30”, “ethanol (2” for “water (1”, “dimethyl sulfoxide” for “water”, “330” for “310”, “nm.” for “nm. The concentration was 0.13 mg/mL.”
as §1, with “(40” for “(30”, “2” for “1”, “ethanol (2” for “water (1”, “dimethyl sulfoxide” for “water”, “330” for “310”, “nm.” for “nm. The concentration was 0.13 mg/mL.”
The crystal (40 mg) obtained in Comparative Example 1 was added to ethanol (2 mL), and was ultrasonically treated for one minute. The solution was left at room temperature for 30 minutes or more, and thereafter the resulting precipitate was centrifuged and the resulting supernatant was diluted with dimethyl sulfoxide to analyze the concentration at an absorbance at 330 nm. The concentration was 1.4 mg/ML.

Appearance dispersed in water after one hour [1] | Solubility in water (concentration of supernatant) [2] | Solubility in ethanol (concentration of supernatant) [4] | Dispersibility (overall conclusion) ([3]; ethanol gelation test, compared with Comparative Example 1) | SMILES | Homogeneity of ethanol mixture (upper and lower portions) [3] | Appearance of ethanol mixture after standing [3] | Appearance after adding ethanol mixture to water [3] | Appearance dispersed in water after two days [1]
dark red dispersion |  |  |  | O=C(O)c1cc(C(=O)O)c2c(n1)c(O)c(O)c1cc(C(=O)O)[nH]c12 [Comparative Example 2, reduced pyrroloquinoline quinone] |  |  |  | a black precipitate was generated and the solution was not homogenous
yellow homogenous dispersion | 130 µg/mL | 8500 µg/mL | significantly high dispersibility | O=C(O)c1cc(C(=O)O)c2c(n1)c(O)c(O)c1cc(C(=O)O)[nH]c12 [Example 1, reduced pyrroloquinoline quinone] | homogenous without any difference between upper and lower portions | orange gelled product | yellow homogenous dispersion | the dispersion remained the same
 | 140 µg/mL | 3200 µg/mL |  | O=C(O)c1cc(C(=O)O)c2c(n1)c(O)c(O)c1cc(C(=O)O)[nH]c12 [Example 2, reduced pyrroloquinoline quinone] |  |  |  | 

SMILES | Appearance dispersed in water after one hour [1] | Solubility in water (concentration of supernatant) [2] | Solubility in ethanol (concentration of supernatant) [4] | Dispersibility (overall conclusion) ([3]; ethanol gelation test, compared with Comparative Example 1) | Homogeneity of ethanol mixture (upper and lower portions) [3] | Appearance of ethanol mixture after standing [3] | Appearance after adding ethanol mixture to water [3] | Appearance dispersed in water after two days [1]
O=C(O)c1cc(C(=O)O)c2c(n1)c(O)c(O)c1cc(C(=O)O)[nH]c12 [Comparative Example 1, reduced pyrroloquinoline quinone] | a solution having a black solid sedimented therein | 19 µg/mL | 1400 µg/mL |  | had a difference between the upper and lower portions | a black solid was sedimented and the solution was slightly yellowed | a solution having a black solid sedimented therein | 
